Assay results from article PMC10762035, “Molecular basis of human trace amine-associated receptor 1 activation” (Nature Communications, 2024).
Residue numbers refer to the chain shown, from its start. Values joined by “and” are separate entries in the source; they are usually repeats but may differ in a detail not shown here. Identical values can stand only once. Like-named read-outs stand apart in the source and are kept apart here. One block for each compound: values may come before it.

Assays:
Format in all cases: cell-based
hTA1 C96S = target: T1, hTA1 C96S (Homo sapiens, UniProt Q96RJ0, C96S); assay: GloSensor cAMP accumulation assay, C96S mutant; settings: log[Compound]
T1 construct: expressed in transfected cells; host or cells: HEK293T
T1 sequence (Q96RJ0 1-339 C96S): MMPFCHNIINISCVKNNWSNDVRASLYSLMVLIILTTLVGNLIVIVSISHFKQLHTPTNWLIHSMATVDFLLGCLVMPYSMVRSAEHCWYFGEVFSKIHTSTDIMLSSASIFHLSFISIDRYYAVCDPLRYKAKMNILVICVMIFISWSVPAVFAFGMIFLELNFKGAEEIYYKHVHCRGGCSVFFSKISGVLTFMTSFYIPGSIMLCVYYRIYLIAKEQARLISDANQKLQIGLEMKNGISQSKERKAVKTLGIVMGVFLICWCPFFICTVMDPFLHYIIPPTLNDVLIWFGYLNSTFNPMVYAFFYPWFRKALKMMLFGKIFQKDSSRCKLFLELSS

hTA1 W264F = target: T2, hTA1 W264F (Homo sapiens, UniProt Q96RJ0, W264F); assay: GloSensor cAMP accumulation assay, W264F mutant;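 also: cells transiently transfected with receptor plus GloSensor, luminescence read 30 min after agonist addition at room temperature, concentration-response curves fitted by log(agonist) vs response regression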
T2 construct: expressed in transfected cells; host or cells: HEK293T
T2 sequence (Q96RJ0 1-339 W264F): T1 sequence (Q96RJ0 1-339 C96S) with S96C, W264F

hTA1 I290N = target: T3, hTA1 I290N (Homo sapiens, UniProt Q96RJ0, I290N); assay: GloSensor cAMP accumulation assay, I290N mutant;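 also: cells transiently co-expressing hTA1 and the GloSensor cAMP biosensor, luminescence read 30 min after compound addition at room temperature, efficacy scaled to the maximal β-PEA response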
T3 construct: expressed in transfected cells; host or cells: HEK293T
T3 sequence (Q96RJ0 1-339 I290N): T1 sequence (Q96RJ0 1-339 C96S) with S96C, I290N

hTA1 F195T = target: T4, hTA1 F195T (Homo sapiens, UniProt Q96RJ0, F195T); assay: GloSensor cAMP accumulation assay, F195T mutant;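 also: cells transiently co-expressing HA-FLAG-tagged hTA1 and the GloSensor cAMP biosensor, luminescence read 30 min after agonist addition at room temperature, concentration-response fitted by nonlinear regression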
T4 construct: expressed in transfected cells; host or cells: HEK293T
T4 sequence (Q96RJ0 1-339 F195T): T1 sequence (Q96RJ0 1-339 C96S) with S96C, F195T

hTA1 T271A = target: T5, hTA1 T271A (Homo sapiens, UniProt Q96RJ0, T271A); assay: GloSensor cAMP accumulation assay, T271A mutant
T5 construct: expressed in transfected cells; host or cells: HEK293T
T5 sequence (Q96RJ0 1-339 T271A): T1 sequence (Q96RJ0 1-339 C96S) with S96C, T271A

[1] = W246F mutant (so in the source) minus WT average

Compound: CCC(CC1COC(N)=N1)c1ccccc1 (stereo not shown) [Ro5256390]
Normalized Luminescence Counts (hTA1 C96S; C96S, M = -5, single replicates (N=2)): -0.5726 and -3.209 and -1.891 and -16.2542 and -4.6346 and -2.698 | Normalized Luminescence Counts (hTA1 C96S; C96S, M = -5.522, single replicates (N=2)): -1.891 (2×) and -3.209 and -4.6346 and -8.508 and 10.8582 | Normalized Luminescence Counts (hTA1 C96S; C96S, M = -6, single replicates (N=2)): 4.041 and -2.55 and -0.5726 and 5.048 (2×) and -10.4444 | Normalized Luminescence Counts (hTA1 C96S; C96S, M = -6.522, single replicates (N=2)): 1.4045 and -2.55 and 2.723 and -0.7614 and -4.6346 and 3.112 | Normalized Luminescence Counts (hTA1 C96S; C96S, M = -7, single replicates (N=2)): 2.723 and -1.891 and 1.4045 and -0.7614 (2×) and -4.6346 | Normalized Luminescence Counts (hTA1 C96S; C96S, M = -7.522, single replicates (N=2)): 5.359 and -3.209 and 2.723 and -0.7614 and -10.4444 and 14.7315 | Normalized Luminescence Counts (hTA1 C96S; C96S, M = -8, single replicates (N=2)): 2.064 and -0.5726 (2×) and 30.2243 and -8.508 and 12.7948 | Normalized Luminescence Counts (hTA1 C96S; C96S, M = -8.522, single replicates (N=2)): 0.7455 and -1.891 and 4.7 and 14.7315 and 3.112 and 12.7948 | Normalized Luminescence Counts (hTA1 C96S; C96S, M = -9, single replicates (N=2)): 0.7455 and -1.232 and -1.891 and 18.6047 and 8.922 and -4.6346 | Normalized Luminescence Counts (hTA1 C96S; C96S, M = -9.522, single replicates (N=2)): 0.08646 and -3.209 and -2.55 and 3.112 and 1.175 and -0.7614 | Normalized Luminescence Counts (hTA1 C96S; C96S, M = -10, single replicates (N=2)): 1.4045 and -0.5726 and 0.7455 and 3.112 and -2.698 (2×) | Normalized Luminescence Counts (hTA1 C96S; C96S, M = -10.522, single replicates (N=2)): -0.5726 and -2.55 and -1.232 and 5.048 and 6.985 and -2.698 | Normalized Luminescence Counts (hTA1 C96S; C96S, M = -11, single replicates (N=2)): 0.7455 and 0.08646 and 4.7 and 32.1609 and 18.6047 and 10.8582 | Normalized Luminescence Counts (hTA1 C96S; C96S, M = -11.522, single replicates (N=2)): 3.382 and 0.7455 and 1.4045 and 20.5413 | Normalized Luminescence Counts (hTA1 C96S; M = -11.522, single replicates, mutant block above C178S): 0.4362 and 0.4589 and 0.8459 and 2.031 and 1.818 and 1.444 | Normalized Luminescence Counts (hTA1 C96S; M = -12, single replicates, mutant block above C178S): 0.6183 and 0.1175 and -0.01903 and 3.527 and 0.8561 and 0.9629 | Normalized Luminescence Counts (hTA1 C96S; M = -12.522, single replicates, mutant block above C178S): -0.1556 (2×) and -0.2011 and 1.711 and 1.818 and 0.6424 | Emax values, Mean (hTA1 W264F): 62.0152 and 91.1137 | EC50 (hTA1 W264F; EC50, W264F, n=2): 127 nM | ΔEmax values (each mutant value - WT average) (hTA1 W264F; [1]): -41.2891 | ΔpEC50 values (each mutant value - WT average) (hTA1 W264F; [1]): -1.382 and -1.371 | EC50 (hTA1 W264F; W246F mutant (so in the source), each line an independent experiment, 3 replicates, read-out: pEC50 values (Mean) (converted)): 129 nM and 125 nM | Emax (hTA1 W264F; read-out: Span ± SEM (Emax normalized to β-PEA), W264F, n=2): 76.6 ± 14.5% | EC50 (hTA1 I290N; EC50, I290N, n=2): 6.21 nM | cAMP accumulation response, single replicate values (source data, Supplementary Figure 5) (hTA1 I290N; hTA1 I290N (N=2), log[Compound], M = -5): 109.556 and 109.922 and 109.294 and 105.343 | ΔpEC50 values (each mutant value - WT average), Mean (hTA1 I290N; hTA1 I290N mutant minus WT average): -0.14 and 0.00774 | Emax values, Mean (hTA1 I290N; hTA1 I290N mutant, β-PEA set to 100, each grid row a separate experiment, 3 replicates): 96.7119 | EC50 (hTA1 I290N; pEC50 values (Mean), hTA1 I290N mutant, Figure 3B source data, each grid row a separate experiment, 3 replicates): 7.37 nM and 5.24 nM | Emax (hTA1 I290N; read-out: Emax values (Mean), hTA1 I290N mutant, β-PEA set to 100, each grid row a separate experiment, 3 replicates): 101% | Emax (hTA1 I290N; read-out: Span ± SEM (Emax normalized to β-PEA), I290N, n=2): 99 ± 2.27% | EC50 (hTA1 F195T; EC50, F195T, n=2): 2.9 nM | Emax values, Mean (hTA1 F195T; F195T mutant, Figure 5B, β-PEA = 100, each row one independent experiment (3 replicates)): 107.711 | EC50 (hTA1 F195T; pEC50 values, Mean, F195T mutant, Figure 5B, each row one independent experiment (3 replicates)): 1.63 nM and 4.03 nM | Emax (hTA1 F195T; read-out: Emax values, Mean, F195T mutant, Figure 5B, β-PEA = 100, each row one independent experiment (3 replicates)): 105% | Emax (hTA1 F195T; read-out: Span ± SEM (Emax normalized to β-PEA), F195T, n=2): 106 ± 1.33% | EC50 (hTA1 T271A; EC50, T271A, n=2): 14.7 nM | Emax values, Mean (hTA1 T271A; T271A mutant, Figure 5B, β-PEA = 100, each row one independent experiment (3 replicates)): 98.9093 | EC50 (hTA1 T271A; pEC50 values, Mean, T271A mutant, Figure 5B, each row one independent experiment (3 replicates)): 8.67 nM and 24.8 nM | Emax (hTA1 T271A; read-out: Emax values, Mean, T271A mutant, Figure 5B, β-PEA = 100, each row one independent experiment (3 replicates)): 92.1% | Emax (hTA1 T271A; read-out: Span ± SEM (Emax normalized to β-PEA), T271A, n=2): 95.5 ± 3.42%

ΔpEC50 values (each mutant value - WT average), Mean (hTA1 W264F; W264F, Asenapine): -2.045 and -2.029 | Emax values, Mean (hTA1 W264F; W264F, Asenapine, per experiment, 3 replicates): 34.2126 and 58.204 | EC50 (hTA1 W264F; W264F, Asenapine, per experiment, 3 replicates, read-out: pEC50 values Mean (converted)): 9610 nM and 9250 nM | EC50 (hTA1 W264F; W264F, n=2, read-out: EC50): 9430 nM | Emax (hTA1 W264F; W264F, n=2, read-out: Span ± SEM (Emax normalized to β-PEA)): 46.2 ± 12% | reduction in potency vs wild type (hTA1 I290N; I290N): 4 fold | Emax values of Asenapine (hTA1 I290N; I290N, Mean of one experiment): 77.7708 | Emax (hTA1 I290N; I290N, Mean of one experiment, read-out: Emax values of Asenapine): 90.3% | EC50 (hTA1 I290N; I290N, Mean of one experiment, read-out: pEC50 values of Asenapine (converted)): 1390 nM and 721 nM | EC50 (hTA1 I290N; I290N, n=2, read-out: EC50): 1000 nM | Emax (hTA1 I290N; I290N, n=2, read-out: Span ± SEM (Emax normalized to β-PEA)): 84 ± 6.25% | EC50 (hTA1 I290N; I290N, n=2, read-out: pEC50 ± SEM (converted)): 1000 nM | Emax (hTA1 I290N; I290N, relative to β-PEA, read-out: Emax): 84% | ΔEmax values (each mutant value - WT average), I290N, Mean (hTA1 I290N; hTA1 I290N mutant vs WT average, Figure 6B, each line is one experiment (3 replicates)): 1.57 and -10.9365 | increase in potency vs wild type (hTA1 F195T; F195T): 3 fold | ΔpEC50 values (each mutant value - WT average), Mean (hTA1 F195T; F195T, Asenapine): -0.004135 and 0.1049 | Emax values, Mean (hTA1 F195T; F195T, Asenapine, per experiment, 3 replicates): 90.8432 and 72.9114 | EC50 (hTA1 F195T; F195T, Asenapine, per experiment, 3 replicates, read-out: pEC50 values Mean (converted)): 87.4 nM and 68 nM | EC50 (hTA1 F195T; F195T, n=2, read-out: EC50): 77.1 nM | Emax (hTA1 F195T; F195T, n=2, read-out: Span ± SEM (Emax normalized to β-PEA)): 81.9 ± 8.97% | reduction in potency vs wild type (hTA1 T271A; T271A): roughly 4 fold | Emax values of Asenapine (hTA1 T271A; T271A, Mean of one experiment): 88.882 | Emax (hTA1 T271A; T271A, Mean of one experiment, read-out: Emax values of Asenapine): 101% | EC50 (hTA1 T271A; T271A, Mean of one experiment, read-out: pEC50 values of Asenapine (converted)): 1300 nM and 1020 nM | EC50 (hTA1 T271A; T271A, n=2, read-out: EC50): 1150 nM | Emax (hTA1 T271A; T271A, n=2, read-out: Span ± SEM (Emax normalized to β-PEA)): 94.8 ± 5.91% | ΔEmax values (each mutant value - WT average), T271A, Mean (hTA1 T271A; hTA1 T271A mutant vs WT average, Figure 6B, each line is one experiment (3 replicates)): 11.9925 and 0.1748
Compound: CN1CC2c3ccccc3Oc3ccc(Cl)cc3C2C1 (stereo not shown) [asenapine]
